Source: publication PMC6832503, “Synthesis of Novel Nicotinic Ligands with Multimodal Action: Targeting Acetylcholine α4β2, Dopamine and Serotonin Transporters” (Molecules, 2019)
Structures can show the parent of a compound that is named as a salt.

tested on: not given; details: not given

| SMILES | melting point |
| --- | --- |
| CN1CCCC1CCOC(=O)c1ccccc1 (racemic) (as salt: hydrochloride) [Compound 7, (±)-2-(1-Methyl-2-pyrrolidinyl)ethyl benzoate] | 88.6 to 89.1 °C |
| Cc1ccccc1C(=O)OC[C@@H]1CCCN1C (as salt: hydrochloride) [Compound 5, (S)-(1-Methyl-2-pyrrolidinyl)methyl 2-methylbenzoate] | 130.5 to 131.6 °C |
| CN1CCC[C@H]1COC(=O)Cc1ccc(Cl)cc1Cl (as salt: hydrochloride) | 179.1 to 180.5 °C |
| CN1CCCC1CCOC(=O)c1ccc2ccccc2c1 (racemic) (as salt: hydrochloride) [Compound 19, (±)-2-(1-Methyl-2-pyrrolidinyl)ethyl 2-naphthoate] | 155.6 to 157.4 °C |
| CN1CCC[C@H]1COC(=O)c1cccc(Br)c1 (as salt: hydrochloride) [Compound 4, (S)-(1-Methyl-2-pyrrolidinyl)methyl 3-bromobenzoate] | 99 to 101.4 °C |
| CN1CCCC1CCOC(=O)C(c1ccccc1)c1ccccc1 (racemic) (as salt: hydrochloride) [Compound 21, (±)-2-(-1-Methyl-2-pyrrolidinyl)ethyl 2,2-diphenylacetate] | 115.3 to 117.2 °C |

target: T1, α4β2 nAChR (Rattus norvegicus, UniProt P09483+P12390); details: bupropion included as comparative value, not used in the trial; cited from earlier work
T1 construct: the rat complete brain P1 fraction (occupying 2 mg of wet tissue for each assay); from tissue; host or cells: whole rat brain, synaptosome pellet (fraction P1)
T1 sequence (P09483 31-630): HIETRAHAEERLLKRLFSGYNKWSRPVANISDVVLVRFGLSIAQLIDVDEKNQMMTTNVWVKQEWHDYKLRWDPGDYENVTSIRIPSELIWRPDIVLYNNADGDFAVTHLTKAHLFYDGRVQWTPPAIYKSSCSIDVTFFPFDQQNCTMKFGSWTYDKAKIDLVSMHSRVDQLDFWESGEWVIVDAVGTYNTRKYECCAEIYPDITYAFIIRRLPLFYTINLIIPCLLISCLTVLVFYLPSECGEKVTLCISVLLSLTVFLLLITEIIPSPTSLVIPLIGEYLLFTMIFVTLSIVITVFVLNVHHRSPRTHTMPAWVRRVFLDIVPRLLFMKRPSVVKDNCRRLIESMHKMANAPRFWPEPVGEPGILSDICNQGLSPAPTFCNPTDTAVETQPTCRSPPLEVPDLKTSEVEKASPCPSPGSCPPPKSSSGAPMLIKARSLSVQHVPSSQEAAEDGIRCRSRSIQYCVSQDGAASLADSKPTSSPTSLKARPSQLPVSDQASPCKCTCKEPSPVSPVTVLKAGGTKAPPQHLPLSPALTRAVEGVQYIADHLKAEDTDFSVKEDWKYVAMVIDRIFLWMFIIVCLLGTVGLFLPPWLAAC
T1 sequence (P12390 25-500): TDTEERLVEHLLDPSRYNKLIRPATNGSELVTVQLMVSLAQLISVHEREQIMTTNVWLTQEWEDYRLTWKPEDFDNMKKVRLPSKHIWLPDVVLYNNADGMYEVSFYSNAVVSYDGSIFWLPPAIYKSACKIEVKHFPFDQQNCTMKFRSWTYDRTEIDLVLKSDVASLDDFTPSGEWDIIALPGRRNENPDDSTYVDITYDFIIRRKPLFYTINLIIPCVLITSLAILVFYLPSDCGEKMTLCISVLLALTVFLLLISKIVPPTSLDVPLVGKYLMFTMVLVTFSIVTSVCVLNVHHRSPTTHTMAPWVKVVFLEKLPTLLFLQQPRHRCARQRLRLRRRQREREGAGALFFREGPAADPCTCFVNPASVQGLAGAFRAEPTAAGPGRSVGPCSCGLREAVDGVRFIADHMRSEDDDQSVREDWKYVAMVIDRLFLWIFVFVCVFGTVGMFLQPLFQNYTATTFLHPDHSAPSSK

| SMILES | Ki |
| --- | --- |
| CC(NC(C)(C)C)C(=O)c1cccc(Cl)c1 (stereo not shown) [Bupropion] | 10 µM |
